This is an account of results in patent US20080114005A1, “Fibrate Compounds Having Ppar Agonist Activity” (Dr. Reddy's Laboratories Limited, priority 2004, published 2008).

In one data set the target is T1, human PPARδ (Homo sapiens, UniProt Q03181).
T1 construct: expressed in transfected cells; host or cells: HEK-293
T1 sequence (Q03181 211-439 limits assumed): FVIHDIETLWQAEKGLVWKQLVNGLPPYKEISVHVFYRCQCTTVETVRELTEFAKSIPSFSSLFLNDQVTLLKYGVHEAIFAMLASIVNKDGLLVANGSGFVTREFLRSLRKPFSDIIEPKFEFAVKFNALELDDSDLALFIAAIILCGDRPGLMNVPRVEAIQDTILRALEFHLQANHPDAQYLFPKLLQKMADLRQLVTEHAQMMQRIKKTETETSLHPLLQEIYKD
Kind of data set: in vitro PPARδ transactivation, GAL4-LBD luciferase reporter in HEK-293 cells. The following applies: luciferase fold activation relative to untreated cells. It is filed as cell-based. As for the experimental part: (§1) The following procedure was used for in vitro determination of PPARα, γ and δ transactivation.
(§2) The ligand binding domain of human PPARγ1, PPARα or PPARδ was fused to the C-terminal end of DNA binding domain of yeast transcription factor GAL4 in eukaryotic expression vector. HEK-293 cells were transfected with either of these plasmids, reporter plasmid pGL2 (Gal4×5)˜SV40˜Luc and pAdVantage using superfect (Qiagen, Germany) for 3 hours. pAdVantage vector was used to enhance the luciferase expression. 48 hours after transfection, the cells were harvested and incubated overnight with or without test compounds at different concentrations. The cells were lysed and luciferase activity was measured using the LucLite kit (Packard USA). Luciferase activity was measured as fold activation relative to untreated cells.
For orientation: Reporter assays use an easily measured gene product as a stand-in for the process of interest.

For a further data set, the target named is T2, human PPARγ1 (Homo sapiens, UniProt P37231).
T2 construct: expressed in transfected cells; host or cells: HEK-293
T2 sequence (P37231 238-503 limits assumed): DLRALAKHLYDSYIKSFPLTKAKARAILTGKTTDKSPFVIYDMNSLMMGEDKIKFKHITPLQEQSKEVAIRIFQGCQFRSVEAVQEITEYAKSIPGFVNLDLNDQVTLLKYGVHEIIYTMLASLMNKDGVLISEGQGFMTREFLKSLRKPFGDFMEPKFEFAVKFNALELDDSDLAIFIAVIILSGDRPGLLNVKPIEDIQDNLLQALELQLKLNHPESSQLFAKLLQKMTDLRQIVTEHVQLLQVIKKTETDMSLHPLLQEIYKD
Briefly: in vitro PPARγ transactivation, GAL4-LBD luciferase reporter in HEK-293 cells. Conditions: luciferase fold activation relative to untreated cells. Type of data set: cell-based. The method, then:
as §1, §2

Data set [1] concerns hypercholesterolemic rat model. Kind of data set: plasma triglyceride and cholesterol lowering activity in hypercholesterolemic rat model. It is filed as in vivo, Sprague Dawley rats. The following applies: hypercholesterolemic rats, 3.0 mg/kg orally for 3 days. As for the experimental part:
The following procedure was used to determine plasma triglyceride and cholesterol lowering activity in hypercholesterolemic rat model.
Male Sprague Dawley rats (NIN stock) were bred in DRL animal house. Animals were maintained under 12 hour light and dark cycle at 25±1° C. Rats of 180-200 gram body weight range were used for the experiment. Animals are made hypercholesterolemic by feeding 2% cholesterol and 1% sodium cholate mixed with standard laboratory chow [National Institute of Nutrition (NIN), Hyderabad, India] for 6 days. Throughout the experimental period the animals were maintained on the same diet. The test compounds were administered orally at a dose mentioned in table for 3 days. Control group was treated with vehicle alone (0.25% CMC; 10 ml/kg). The blood samples were collected in fed state 1 hour after drug administration on 0 and 3 days of compound treatment. The blood was collected from the retro-orbital sinus through heparinised capillary in EDTA containing tubes. After centrifugation, plasma sample was separated for total cholesterol, HDL and triglyceride estimations. Measurement of plasma triglyceride, total cholesterol and HDL were done using commercial kits. LDL and VLDL cholesterol can be calculated from the data obtained for total cholesterol, HDL and triglyceride.
The percent reductions in blood sugar/triglycerides/total cholesterol were calculated according to the following formula:
OC=Zero day control group value
OT=Zero day treated group value
TC=Test day control group value
T=Test day treated group value.
The levels of LDL and VLDL cholesterol were calculated according to the formula:
VLDL cholesterol in mg/dl=[Total cholesterol-HDL cholesterol-LDL cholesterol] mg/dl.

For another data set, the system named is Swiss albino mice. Briefly: plasma triglyceride lowering activity in Swiss albino mice. Type of data set: in vivo. The following applies: 3.0 mg/kg orally for 6 days. The method, then:
The properties of the derivatives of the invention were also evaluated in vivo. The following procedure was used to determine plasma triglyceride and total cholesterol lowering activity in Swiss albino mice.
Male Swiss albino mice (SAM) were obtained from National Institute Nutrition (NIN) and housed in Dr. Reddy's Laboratories Ltd (DRL) animal house. All these animals are maintained under 12 hour light and dark cycle at 25±1° C. Animals were given standard laboratory chow (NIN, Hyderabad, India) and water, ad libitum. SAM of 20-25 grams body weight range were used. See Oliver, P., Plancke, M. O., Marzin, D., Clavey, V., Sauzieres, J and Fruchart, J. C. Effects of fenofibrate, gemfibrozil and nicotinic acid on plasma lipoprotein levels in normal and hyperlipidemic mice, Atherosclerosis. 1988. 70: 107-114, incorporated herein by reference in its entirety. The test compounds can be administered orally to Swiss albino mice at the dose mentioned in table for 6 days. Control mice were treated with vehicle 0.25% Carboxymethylcellulose (CMC; dose 10 ml/kg). The blood samples from the retro-orbital sinus through heparinised capillary in EDTA containing tubes were collected in fed state 1 hour after drug administration on 0 and 6 days of treatment. After centrifugation plasma was separated for triglyceride measurement using commercial kits. See Wieland, O. Methods of Enzymatic analysis. Bergermeyer, H. O., Ed., 1963. 211-214; Trinder, P. Ann. Clin. Biochem. 1969. 6: 24-27, incorporated herein by reference in its entirety. Percent reduction was calculated as per the formula given in Petit, D., Bonnefis, M. T., Rey, C. and Infante, R. Effects of ciprofibrate on liver lipids and lipoprotein synthesis in normo- and hyperlipidemic rats. Atherosclerosis. 1988. 74 : 215-225.

In another data set the target is T3, human PPARα (Homo sapiens, UniProt Q07869).
T3 construct: expressed in transfected cells; host or cells: HEK-293
T3 sequence (Q07869 239-466 limits assumed): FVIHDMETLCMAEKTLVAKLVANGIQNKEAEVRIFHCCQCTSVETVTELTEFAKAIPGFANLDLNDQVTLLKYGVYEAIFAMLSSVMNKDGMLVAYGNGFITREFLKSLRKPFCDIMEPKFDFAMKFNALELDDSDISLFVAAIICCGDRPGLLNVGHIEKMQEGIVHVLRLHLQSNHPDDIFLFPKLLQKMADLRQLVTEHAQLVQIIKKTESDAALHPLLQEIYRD
Briefly: in vitro PPARα transactivation, GAL4-LBD luciferase reporter in HEK-293 cells. Type of data set: cell-based. The following applies: luciferase fold activation relative to untreated cells.
Description: A number of derivatives of the invention have shown PPAR agonist activity. The following procedure was used for in vitro determination of PPARα, γ and δ transactivation.
as §2

Turning to `CCCc1nn(C)c2c(=O)n(CCOc3cccc(OC(C)(C)C(=O)O)c3)c(C)nc12` [Example 89, 2-{3-[2-(1,5-Dimethyl-7-oxo-3-propyl-1,7-dihydro-pyrazolo[4,3-d]pyrimidin-6-yl)-ethoxy]-phenoxy}-2-methyl-propionic acid], the melting point (commonly the temperature of the solid-liquid transition) was in the range of 140 to 142 °C. Besides, the PPARδ activation on human PPARδ (test compound at 1 μM) is 0. This compound also had a PPARδ activation at human PPARδ (test compound at 10 μM) of 0.4. For the same compound, the PPARγ activation at human PPARγ1 (test compound at 1 μM) is 0(54.5). In addition, the PPARγ activation on human PPARγ1 (test compound at 10 μM) is on record as 0(62.8). Also, the “Reduction (%) LDL” value in data set [1] (LDL cholesterol calculated by formula) is recorded as 68%. In addition, the “↑HDL” value in data set [1] (increase of plasma HDL (under head Reduction (%))) was found to be 102%. Besides, in data set [1] (plasma total cholesterol), the “Reduction (%) TC” value came to 65%. For the same compound, in data set [1] (plasma triglyceride), the “Reduction (%) TG” value was determined as 68%. The “% reduction in TG” value in the data set on Swiss albino mice worked out at 60%. Besides, the PPARα activation on human PPARα (test compound at 1 μM) is on record as 2.1. Further, the PPARα activation on human PPARα (test compound at 10 μM) was determined as 7.4.
